pIC50: −log10 of the molar value.
Key:
[1] = test system: Interleukin-6 (IL-6) in LPS-induced human PBMC; assay: Cytokine secretion of LPS-induced human PBMC, IL-6 AlphaLISA detection; assay type: cell-based; settings: inhibition of IL-6, compound 1 hour or 20 hours, then LPS 100 ng/mL 5 hours
Protocol: Frozen human PBMC (Milestone, PB010C) was resuspended to RPMI 1640 medium (Gibco, A1049101) after resuscitation, supplemented with 10% fetal bovine serum (Gibco, 10099141), 100 U/mL penicillin and 100 μg/mL streptomycin (Gibco, 15140122). On the same day, 150 μL of PBMC was spread in each well of a 96-well transparent cell plate (Labserv, 310109008), so that the cell density was 2×10^5 cells/well. Then 50 μL diluted compound solution was added to the corresponding cell-covered wells to make the final concentration of the compound in the range of 0.026-10000 nM. The final concentration of DMSO was 0.25%. After the drug-treated cell plate was cultured at 37° C. for 1 hour or 20 hours in a 5% CO2 incubator, 10 μL LPS (0111:B4) (Sigma, L4391) was added with a final concentration of 100 ng/mL. The cell plate was again placed in a 5% CO2 incubator at 37° C. for 5 hours, centrifuged at 2000 rpm for 10 minutes, and 100 μL cell supernatant was taken from each well and transferred to a new 96-well transparent cell plate for cytokine concentration test, which was frozen at −80° C. to be tested.
The concentration of IL-6 in the supernatant of LPS-induced human PBMC cells was determined using interleukin-6 (IL-6) AlphaLISA detection kit (PerkinElmer, AL223 C).
According to the product instructions, IL-6 standard solutions with different concentrations were prepared in the concentration range of […]. 2 μL of IL-6 standard solution at various concentrations and the cell supernatant sample to be tested were taken, respectively added to white 384 well plates (PerkinElmer, 6007299), then a mixed solution of 8 μL of 5× anti-IL-6 receptor beads (final concentration: 10 μg/mL) and biotin-labeled anti-IL-6 antibody (final concentration 1 nM) was added to each well, and incubated at 23° C. for 60 minutes. Finally, 10 μL of 2× streptavidin-labeled donor beads (final concentration: 40 μg/mL) were added to each well and incubated at 23° C. for 30 minutes in the absent of light. After the incubation, the AlphaLISA signal value was determined in the AlphaScreen standard setting mode on the microplate reader EnVision(PerkinElmer, 2105). The standard curve was drawn by the AlphaLISA signal value of each concentration IL-6 standard solution, and then based on the corresponding concentration on the standard curve for the AlphaLISA signal value of the sample to be tested, the IL-6 concentration of each cell lysis supernatant was determined. Compared with the IL-6 concentration of the control group, the inhibition rate of the compound at each concentration was calculated, and then IC50 value of the compound was calculated by fitting the nonlinear curve with the logarithmic concentration-inhibition rate by GraphPad Prism 7.

IRAK4 kinase = molecular target: T1, IRAK4 kinase (Homo sapiens, UniProt Q9NWZ3); assay: IRAK4 kinase activity test (KinEASE-STK S1 HTRF kit); assay type: biochemical; settings: 2.5 nM kinase, 1 μM biotinylated polypeptide substrate, 7 μM ATP, 37° C. 120 min
T1 sequence (Q9NWZ3 1-460): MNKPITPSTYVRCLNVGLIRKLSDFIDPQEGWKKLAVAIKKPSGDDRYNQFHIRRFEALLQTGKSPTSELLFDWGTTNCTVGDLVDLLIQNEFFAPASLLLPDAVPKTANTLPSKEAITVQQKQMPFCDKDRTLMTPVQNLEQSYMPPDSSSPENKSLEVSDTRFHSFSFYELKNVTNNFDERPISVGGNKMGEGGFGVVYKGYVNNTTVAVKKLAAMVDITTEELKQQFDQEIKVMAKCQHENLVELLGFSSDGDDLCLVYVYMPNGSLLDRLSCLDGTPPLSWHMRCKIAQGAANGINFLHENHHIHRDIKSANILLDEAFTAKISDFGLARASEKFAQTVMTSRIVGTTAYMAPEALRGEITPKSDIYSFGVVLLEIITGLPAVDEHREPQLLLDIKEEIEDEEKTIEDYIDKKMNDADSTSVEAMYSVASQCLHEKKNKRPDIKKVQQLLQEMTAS
Procedure, shortened: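 Compound in DMSO, serially diluted to 10000–0.038 nM final, incubated with 2.5 nM kinase, 1 μM biotinylated peptide substrate and 7 μM ATP at 37° C for 120 min. Eu-anti-phospho-Ser/Thr antibody plus streptavidin-XL665 stopped the reaction (1 h RT). HTRF 665/620 nm ratio gave % inhibition versus control; IC50 from nonlinear log-concentration fit.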

## CN(CC1CCN(c2cccc3c2C(=O)N(C2CCC(=O)NC2=O)C3=O)CC1)C[C@H]1CC[C@H](n2cc3cc(NC(=O)c4cccc(C(F)(F)F)n4)c(C(C)(C)O)cc3n2)CC1 (stereo partly drawn) [Control group 3, N-(2-((1r,4r)-4-((((1-(2-(2,6-dioxopiperidin-3-yl)-1,3-dioxoisoindolin-4-yl)piperidin-4-yl)methyl) (methyl)amino)methyl)cyclohexyl)-6-(2-hydroxyprop-2-yl)-2H-indazol-5-yl)-6-(trifluoromethyl) pyridinecarboxamide, reference compound]
[1]
  pIC50: 7.32
IRAK4 kinase
  pIC50: 7.79

## CC(C)(O)c1cc2nn(C3CCN(CC4CCC5(CC4)CCN(C(=O)c4ccc(Cl)c(N6CCC(=O)NC6=O)c4)CC5)CC3)cc2cc1NC(=O)c1cccc(C(F)(F)F)n1 [Example 31, N-(2-(1-((3-(4-chloro-3-(2,4-dioxotetrahydro-pyrimidin-1 (2H)-yl)benzoyl)-3-azaspiro [5.5]undec-9-yl)methyl)piperdin-4-yl)-6-(2-hydroxyprop-2-yl)-2H-indazol-5-yl)-6-(trifluoro-methyl) pyridinecarbox-amide]
[1]
  pIC50: 8.74
IRAK4 kinase
  pIC50: 7.85

## COc1cc2nn(C3CCN(CC4CCN(CCOc5ccc6c(c5)C(=O)N(C5CCC(=O)NC5=O)C6=O)CC4)CC3)cc2cc1NC(=O)c1cccc(C(F)(F)F)n1 (stereo not drawn) [Control group 2, N-(2-(1-((1-(2-((2-(2,6-dioxopiperidin-3-yl)-1,3-dioxoisoindol-5-yl)oxy)ethyl)piperidin-4-yl)methyl)piperidin-4-yl)-6-methoxy-2H-indazol-5-yl)-6-(trifluoromethyl) pyridinecarboxamide, reference compound]
[1]
  pIC50: 5.69
IRAK4 kinase
  pIC50: 7.82
